Assay results reported in PMC7093242 (Cell chemical biology, 2020).

Biological target: Yck2-HA (HA-tagged Yck2) (Candida albicans, UniProt A0A1D8PKB4)
Experiment: ADP-Glo kinase assay on immunoprecipitated Yck2-HA beads
Format: biochemical
Details: 25 μM ATP, 0.2 mg/mL casein kinase I peptide substrate, pH 7.5, 30°C; little effect

`CN[C@@H]1C[C@H]2O[C@@](C)([C@@H]1OC)n1c3ccccc3c3c4c(c5c6ccccc6n2c5c31)C(=O)NC4` [STS, staurosporine] was tested, and the concentration-dependent inhibition was “the promiscuous PKI, staurosporine had little effect on Yck2 activity”.
